Data taken from US20210401730A1, “USE OF EXTRACTS OF AGAVE FOR A HAIR APPLICATION” (priority 2017, published 2021).
Where two headings read alike, the source gives them in different places.

Assays:
[1] = test system: human umbilical vein endothelial cells (HUVEC); assay: Formation of microtubules (pseudo-tubes) by endothelial cells on matrigel; assay type: cell-based; conditions: for Results in % (formation of pseudo-tubes): 6 hours, control medium = 100
Description: In this experiment, the cells are human umbilical vein endothelial cells (HUVEC) cultured in M200 medium (Invitrogen M200500) on matrigel (BD Biosciences 354234) for 6 hours. The cells are either in the medium (control medium) or treated by suramin (negative control) or treated by VEGF (positive control) or treated by Metlin® or Metlos® inulins (at 0.1%). After 6 hours of incubation, the pseudo-tubes formed are observed under the microscope and images are taken at random to be subsequently quantified (total surface of the network) by image analysis.

[2] = test system: EPCs (circulating endothelial progenitor cells) originating from human umbilical cord blood; assay: Migration of endothelial progenitor cells through insert membrane; assay type: cell-based; conditions: C+ medium + VEGF 10 ng/ml, 5 hours
Description: The study was carried out on EPCs (circulating endothelial progenitor cells) originating from human umbilical cord blood, cultured in EGM-2 medium (Endothelial Growth medium-2).
Before the treatment, the cells are starved in 0.2% EBM-2 medium of fetal calf serum (FCS). The cells are subsequently seeded in an insert containing EGM-2 medium with 0.2% FCS, immersed in a well containing the treatment: either EGM-2 medium 0.2% FCS (negative control), or EGM-2 medium 0.2% FCS plus VEGF at 10 ng/ml (positive control), or EGM-2 medium 0.2% FCS plus the Metlin® or Metlos® inulins at 0.5% or 1%. After 5 hours of incubation, the cells inside the inserts are eliminated and those that have migrated to the other side of the insert membrane are fixed with 4% paraformaldehyde for 10 min. The cells that have migrated are subsequently counted.

Row | Molecule | Number of branchings ([1]; C− 20 μM, 6 hours of incubation) | Results in % (formation of pseudo-tubes) ([1]; C− 20 μM) [%] | Number of branchings [1] | Results in % (formation of pseudo-tubes) ([1]; C+ 50 ng/ml) [%] | Number of cells (migrated) [2] | Results relative to C− [2] [%]
1 | Cc1ccc(C(=O)Nc2ccc(S(=O)(=O)O)c3cc(S(=O)(=O)O)cc(S(=O)(=O)O)c23)cc1NC(=O)c1cccc(NC(=O)Nc2cccc(C(=O)Nc3cc(C(=O)Nc4ccc(S(=O)(=O)O)c5cc(S(=O)(=O)O)cc(S(=O)(=O)O)c45)ccc3C)c2)c1 [Suramin, suramin] | 0 | 0 |  |  |  | 
2 | VEGF |  |  | 18 | 140 | 417 | 181
